Data set [1] in a line: Measuring spectral characteristics (absorption and emission maxima, extinction coefficients). It is filed as physicochemical. As for the experimental part:
(§1) To measure spectral characteristics of some compounds with the formula I weighted portions of compounds p-NH2-BDI-BF2, p-dimethylamino-BDI-BF2, p-diethylamino-BDI-BF2, p-HOBDI-BF2, di-F-p-HOBDI-BF2, p-diethylamino-BDI-dimethylaminoethenyl-BF2 and p-HOBDI-dimethylaminoethenyl-BF2 were dissolved in water, ethanol and acetonitrile. Absorption spectra were measured on Varian Cary 100 Bio spectrophotometer, fluorescence spectra were measured on Varian Cary Eclipse scanning spectrofluorometer.
The values of absorption and emission maxima and molar extinction coefficients for examples of compounds with the formula I in the indicated solvents are listed in a Table 2. Emission peaks of the investigated compounds settle into a rather wide range from 485 nm for p-HOBDI-BF2 to 598 nm for p-diethylamino-BDI-dimethylamino-ethenyl-BF2.

The nature of data set [2]: Quantum yield of fluorescence. It counts as physicochemical. As for the experimental part:
as §1
The compounds p-NH2-BDI-BF2, p-HOBDI-BF2 (anionic form), di-Fp-HOBDI-BF2 (anionic form), p-diethylamino-BDI-dimethylaminoethenyl-BF2, p-HOBDI-dimethylaminoethenyl-BF2 (anionic form) have rather high quantum yields of fluorescence in water solutions.

Data set [3] in a line: Determination of solubility in water. It counts as physicochemical. As to conditions: thermodynamic from solid. As to the method:
To determine the solubility in water of compounds an excess amount of analyzed substance was put in a known volume of a solvent and stirred for 5 hours at r.t. The obtained mixture was centrifuged, and the concentration of a compound in mother liquor was measured with spectrophotometric method on the base of molar extinction coefficients data.

For data set [4] the following is noted: cited from earlier work; for emission peak: widely used fluorescent dyes, approximate values.
Data set [5] can be described thus: Photoacidity: acidity constants of ground and excited states. It is filed as physicochemical. From the text: Photoacidity is an ability to dissociate with formation of H^+ ion under the action of visible light. Photoacidity is characterized by constants of acidity of ground and excited states. Förster's equation describes the relationship between acidity constants of ground and excited states and energy of transfer between the states.
For compounds of the formula I, containing phenolic OH-group, high photoacidity—an ability to dissociate with formation of H^+ ion under the action of visible light—is a distinctive feature. […] (^1)((Z)-4-(2-(difluoroboryl)-3,5-difluoro-4-hydroxybenzylidene)-1,2-dimethyl-1H-imidazole-5(4H)-one)

The mark [6] stands for this setting: water, neutral form line, starred: only emission of deprotonated form can be measured due to high photoacidity.
Where [7] appears, read: acidic and neutral pH values, r.t.
Setting [8] is: acidic and neutral values of pH.

In brackets after ≈: the same amount, converted by molar mass. Read-outs that look alike come from different tables or passages of the source. Marks after values point to notes of the source that are not given here. Bounds are passed on as bounds.

On to `CCN(CC)c1ccc(/C=C2N=C(/C=C/N(C)C)N(C)C\2=O)c(B(F)F)c1` [(Z)-4-(4-(diethylamino)-2-(difluoroboryl)benzylidene)-2-((E)-2-(dimethylamino)vynil)-1-methyl-1H-imidazole-5(4H)-one], for which the “shift of emission and absorption spectra with change of more polar solvent (water) to less polar (ethanol, acetonitrile)” value in data set [1] is “hypsochromic shift”. Besides, the results for the Abs. peak in data set [1] (acetonitrile), in data set [1] (ethanol) and in data set [1] (water) were 510 nm, 525 nm and 525 nm, respectively. Further, the values for the Emis. peak in data set [1] (acetonitrile), in data set [1] (ethanol) and in data set [1] (water) were 583 nm, 588 nm and 598 nm, respectively. In addition, in data set [2] (water), the “Quantum yield of fluorescence” value is listed as 0.35.
One may read the solubility as the dissolved amount per volume that the medium holds. As for `CC1=N/C(=C\c2cc(F)c(O)cc2B(F)F)C(=O)N1C` [F-p-HOBDI-BF2, (Z)-4-(2-(difluoroboryl)-5-fluoro-4-hydroxybenzylidene)-1,2-dimethyl-1H-imidazole-5(4H)-one], the Abs. peak in data set [1] (acetonitrile, anionic form) is given as 522 nm; in data set [1] (acetonitrile, neutral form) it was 397 nm; in data set [1] (ethanol, anionic form), 505 nm; in data set [1] (ethanol, neutral form) it was 408 nm; in data set [1] (water, anionic form), 478 nm; in data set [1] (water, neutral form) it was 392 nm. Moreover, the Emis. peak was 543 nm in data set [1] (acetonitrile, anionic form); 468 nm in data set [1] (acetonitrile, neutral form); 537 nm in data set [1] (ethanol, anionic form); 482 nm in data set [1] (ethanol, neutral form); 528 nm in data set [1] (water, anionic form); 528* nm in data set [1] (setting [6]). For the same molecule, the ext. coef. in data set [1] (acetonitrile, neutral form) was found to be 28000 M⁻¹ cm⁻¹; in data set [1] (ethanol, anionic form) it was 48000 M⁻¹ cm⁻¹; in data set [1] (ethanol, neutral form) it was 24000 M⁻¹ cm⁻¹; in data set [1] (water, anionic form) it was 38300 M⁻¹ cm⁻¹; in data set [1] (water, neutral form) it was 31500 M⁻¹ cm⁻¹. Further, the results for the “shift of emission and absorption spectra with change of more polar solvent (water) to less polar (ethanol, acetonitrile)” value in data set [1] (anionic form) and in data set [1] (neutral form) were “bathochromic shift” and “hypsochromic shift”, respectively. The solubility at 5 h is roughly 1000 µM (≈ 282 µg/mL) in data set [3] (setting [7]) and 1 µM (≈ 0.282 µg/mL) in data set [3] (setting [8]).
`CC1=N/C(=C\c2ccc(O)cc2)C(=O)N1C` [p-HOBDI, (Z)-4-(4-hydroxybenzylidene)-1,2-dimethyl-1H-imidazole-5(4H)-one]: the Quantum yield entry in data set [4] (p-HOBDI, from D. Mandal et al., J. Phys. Chem. B 108, 1102 (2004), spans water, ethanol, acetonitrile columns) is listed as “Quantum yield is less than 10^−4”.
As for `O=C1OC2(c3ccc(O)cc3Oc3cc(O)ccc32)c2ccc(N=C=S)cc21` [FITC], the emission peak in data set [4] is 521 nm.
As for `O=C1NC=N/C1=C\c1cccn1B(F)F` [(Z)-4-((1-(difluoroboryl)-1H-pyrrol-2-yl)methylene)-1H-imidazole-5(4H)-one], the “Quantum yield of fluorescence” value in data set [4] (comparison values for known fluorophores) was 0.81.
As to `CN(C)/C=C/C1=NC(=C\c2ccc(O)cc2B(F)F)/C(=O)N1C` [p-HOBDI-dimethylaminoethenyl-BF2, (Z)-4-(2-(difluoroboryl)-4-hydroxybenzylidene)-2-((E)-2-(dimethylamino)vynil)-1-methyl-1H-imidazole-5(4H)-one], the Abs. peak in data set [1] (acetonitrile, anionic form) is 555 nm; in data set [1] (acetonitrile, neutral form), 444 nm; in data set [1] (ethanol, anionic form), 529 nm; in data set [1] (ethanol, neutral form), 450 nm; in data set [1] (water, anionic form) it was 502 nm; in data set [1] (water, neutral form), 467 nm. Also, the Emis. peak came to 598 nm in data set [1] (acetonitrile, anionic form); 502 nm in data set [1] (acetonitrile, neutral form); 587 nm in data set [1] (ethanol, anionic form); 505 nm in data set [1] (ethanol, neutral form); 570 nm in data set [1] (water, anionic form); 521 nm in data set [1] (water, neutral form). The figures for the “shift of emission and absorption spectra with change of more polar solvent (water) to less polar (ethanol, acetonitrile)” value in data set [1] (anionic form) and in data set [1] (neutral form) were “bathochromic shift” and “hypsochromic shift”, respectively. For the same molecule, the “Quantum yield of fluorescence” value in data set [2] (water, anionic form) was determined as 0.27.
With `CCCCCCCCCCCCCCCCCCN1/C(=C\C=C\c2oc3ccccc3[n+]2CCCCCCCCCCCCCCCCCC)Oc2ccccc21.[O-][Cl+3]([O-])([O-])[O-]` [DiO], the emission peak in data set [4] was 501 nm.
For orientation: pKa means the negative logarithm of the acid dissociation constant. With `CC1=N/C(=C\c2cc(F)c(O)c(F)c2B(F)F)C(=O)N1C` [di-F-p-HOBDI-BF2, (Z)-4-(2-(difluoroboryl)-3,5-difluoro-4-hydroxybenzylidene)-1,2-dimethyl-1H-imidazole-5(4H)-one], the Abs. peak was 519 nm in data set [1] (acetonitrile, anionic form); 392 nm in data set [1] (acetonitrile, neutral form); 503 nm in data set [1] (ethanol, anionic form); 400 nm in data set [1] (ethanol, neutral form); 484 nm in data set [1] (water, anionic form); 400 nm in data set [1] (water, neutral form). Further, the Emis. peak in data set [1] (acetonitrile, anionic form) is given as 542 nm; in data set [1] (acetonitrile, neutral form) it was 460 nm; in data set [1] (ethanol, anionic form), 538 nm; in data set [1] (ethanol, neutral form line, starred: only emission of deprotonated form can be measured due to high photoacidity), 538* nm; in data set [1] (water, anionic form) it was 532 nm; in data set [1] (setting [6]), 532* nm. The ext. coef. in data set [1] (acetonitrile, neutral form) worked out at 26000 M⁻¹ cm⁻¹; in data set [1] (ethanol, anionic form), 45000 M⁻¹ cm⁻¹; in data set [1] (ethanol, neutral form), 21000 M⁻¹ cm⁻¹; in data set [1] (water, anionic form) it was 44400 M⁻¹ cm⁻¹; in data set [1] (water, neutral form), 32000 M⁻¹ cm⁻¹. The “shift of emission and absorption spectra with change of more polar solvent (water) to less polar (ethanol, acetonitrile)” value in data set [1] (anionic form) was “bathochromic shift”; in data set [1] (neutral form), “hypsochromic shift”. Further, the “Quantum yield of fluorescence” value in data set [2] (water, anionic form) was 0.73. Further, the solubility at 5 h in data set [3] (setting [7]) was roughly 1000 µM (≈ 300 µg/mL); in data set [3] (setting [8]) it was 1 µM (≈ 0.3 µg/mL). Further, the pKa in data set [5] (excited state) was less than 0; in data set [5] (ground state, phenol group), 5.2. Moreover, the “pKa*” value in data set [5] (excited state, listed as (Z)-4-(2-(difluoroboryl)-3,5-difluoro-4-hydroxybenzylidene)-1,2-dimethyl-1H-imid) is reported as “lies in the negative region”; in data set [5] (excited state, listed as diF-p-HOBDI-BF2) it was “in the range of negative values”.
In the case of `CC1=N/C(=C\c2ccc(N)cc2B(F)F)C(=O)N1C` [p-NH2-BDI-BF2, (Z)-4-(4-amino-2-(difluoroboryl)benzylidene)-1,2-dimethyl-1H-imidazole-5(4H)-one], in data set [1], the “shift of emission and absorption spectra with change of more polar solvent (water) to less polar (ethanol, acetonitrile)” value is listed as “hypsochromic shift”. For the same molecule, the Abs. peak in data set [1] (acetonitrile) amounted to 451 nm; in data set [1] (ethanol), 476 nm; in data set [1] (water) it was 475 nm. For the same molecule, the Emis. peak in data set [1] (acetonitrile) came out at 518 nm; in data set [1] (ethanol) it was 532 nm; in data set [1] (water) it was 532 nm. For the same molecule, the figures for the “Quantum yield of fluorescence” value in data set [2] (acetonitrile), in data set [2] (ethanol) and in data set [2] (water) were 0.62, 0.64 and 0.70, respectively.
`CC1=N/C(=C\c2ccc(N(C)C)cc2B(F)F)C(=O)N1C` [p-dimethylamino-BDI-BF2, (Z)-4-(4-(dimethylamino)-2-(difluoroboryl)benzylidene)-1,2-dimethyl-1H-imidazole-5(4H)-one]: the “shift of emission and absorption spectra with change of more polar solvent (water) to less polar (ethanol, acetonitrile)” value in data set [1] is “hypsochromic shift”. Moreover, the Abs. peak in data set [1] (acetonitrile) was found to be 483 nm; in data set [1] (ethanol), 498 nm; in data set [1] (water), 507 nm. Further, the figures for the Emis. peak in data set [1] (acetonitrile), in data set [1] (ethanol) and in data set [1] (water) were 551 nm, 557 nm and 565 nm, respectively. For the same molecule, the “Quantum yield of fluorescence” value in data set [2] (acetonitrile) is on record as 0.49; in data set [2] (ethanol), 0.31; in data set [2] (water), 0.05.
For `CCN1C(=CC=CC2=[N+](CCCCCC(=O)O)c3ccc(S(=O)(=O)O)cc3C2(C)C)C(C)(C)c2cc(S(=O)(=O)[O-])ccc21` [Cy3], the emission peak in data set [4] is reported as 570 nm.

These data come from patent US9133220B2, “Boron-containing 5-arylidene-3,5-dihydro-4H-imidazol-4-ones” (Evrogen Joint Stock Company, priority 2012, dated 2015).
